In patent publication US9249155B2, “Thieno [2, 3-D] pyrimidine derivatives and their use to treat arrhythmia” (XENTION LIMITED, priority 2011, dated 2016):

Tests used:
hKv1.5 = molecular target: T1, hKv1.5 (Homo sapiens, UniProt P22460); assay: Kv1.5 electrophysiology, whole cell patch clamp; type: cell-based; conditions: CHO stably transfected with hKv1.5, whole cell patch clamp, room temperature
T1 construct: expressed in transfected cells; host or cells: CHO
Method: The ability of the compounds of the invention to inhibit the Kv1.5 potassium channel was measured in an electrophysiology experiment, using recombinant cells expressing the channel of interest in a whole cell patch clamp experiment.
The external bathing solution contained (in mM): 150 NaCl, 10 KCl, 3 MgCl2, 1 CaCl2, HEPES, pH 7.4. Patch pipettes were filled with an electrode solution of composition (in mM): 160 KCl, 0.5 MgCl2, 10 HEPES, 1 EGTA, pH 7.2 with KOH.
Compounds were dissolved in DMSO (100%) and freshly made up in the external bather at the desired concentration (final DMSO concentration=0.1%). All experiments were conducted at room temperature.
For whole-cell patch-clamp studies cells (CHO stably transfected with hKv1.5) were seeded onto glass coverslips before recordings were made. Cells were seeded in sterile 30 mm Petri dishes at a density to enable isolated cells to be selected for patch clamp experiments. The dishes were stored in a humidified, gassed (5% CO2) incubator at 37° C. until use.
Whole-cell patch-clamp recordings of membrane currents were made following gigaohm seal formation between the patch electrode and the cell using HEKA EPC-9/10 amplifiers controlled by Pulse Software (Ver8.5x/8.6x, HEKA, Germany). Coverslips seeded with cells were placed in a recording chamber mounted on the stage of an inverted microscope. During the experiment the cell of interest was continuously superfused with bather solution delivered via a cannula placed in close proximity to the cell to enable control of the extracellular solution environment. Only those cells with a current>500 pA were used for experiments. […]
Electrophysiology voltage-step protocols and analysis of data was performed as follows. […] Mean currents during 75-95% of the depolarising step to 0 mV were analysed using Pulsefit software (v8.x, HEKA, Germany). […] The test substance was allowed to equilibrate during which time voltage protocol was repeatedly applied and recorded. Percentage inhibition of the current in the presence of test substance was calculated relative to the control pre-drug value.

T1 sequence (P22460 whole entry): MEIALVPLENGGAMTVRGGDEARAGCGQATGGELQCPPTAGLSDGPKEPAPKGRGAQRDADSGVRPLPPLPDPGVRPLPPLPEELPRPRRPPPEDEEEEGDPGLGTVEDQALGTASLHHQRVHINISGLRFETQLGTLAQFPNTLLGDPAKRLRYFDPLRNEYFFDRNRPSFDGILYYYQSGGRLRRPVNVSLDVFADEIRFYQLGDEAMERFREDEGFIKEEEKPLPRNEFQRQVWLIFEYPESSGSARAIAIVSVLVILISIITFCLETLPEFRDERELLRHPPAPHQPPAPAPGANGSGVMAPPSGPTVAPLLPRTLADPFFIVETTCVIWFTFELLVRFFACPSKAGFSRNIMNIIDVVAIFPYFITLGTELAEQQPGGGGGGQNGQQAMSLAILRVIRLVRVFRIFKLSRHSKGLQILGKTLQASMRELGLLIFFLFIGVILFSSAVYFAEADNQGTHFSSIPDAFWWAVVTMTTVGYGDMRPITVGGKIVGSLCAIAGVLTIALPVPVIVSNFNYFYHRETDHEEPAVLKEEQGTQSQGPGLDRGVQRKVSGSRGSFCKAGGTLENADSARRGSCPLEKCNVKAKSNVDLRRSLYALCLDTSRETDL

SMILES	IC50 (hKv1.5) [nM]	melting point [°C]
O=C(NCCO)C1CCCN(c2nc(NCc3ccccn3)c3c(-c4ccccc4)csc3n2)C1 (racemic) [Racemate, 1-{5-Phenyl-4-[(pyridin-2-ylmethyl)-amino]-thieno[2,3-d]pyrimidin-2-yl}-piperidine-3carboxylic acid (2-hydroxy-ethyl)-amide]	9	190 to 194
O=C(NCCO)[C@@H]1CCCN(c2nc(NCc3ccccn3)c3c(-c4ccccc4)csc3n2)C1 [(R) enantiomer (Ic), (R)-1-{5-Phenyl-4-[(pyridin-2-ylmethyl)-amino]-thieno[2,3-d]pyrimidin-2-yl}-piperidine-3-carboxylic acid (2-hydroxy-ethyl)-amide]	5	71 to 76
O=C(NCCO)[C@H]1CCCN(c2nc(NCc3ccccn3)c3c(-c4ccccc4)csc3n2)C1 [(S) enantiomer (Ib), (S)-1-{5-Phenyl-4-[(pyridin-2-ylmethyl)-amino]-thieno[2,3-d]pyrimidin-2-yl}-piperidine-3-carboxylic acid (2-hydroxy-ethyl)-amide]	27	61 to 65
